Experimental data reported in PMC6385203, “Mutations in the palm domain disrupt modulation of acid-sensing ion channel 1a currents by neuropeptides” (Scientific Reports, 2019).
Peptide text beside a SMILES is read from it.

Molecular target: T1, WT ASIC1a (Homo sapiens, UniProt P78348)
T1 construct: expressed in transfected cells; host or cells: Xenopus laevis oocytes injected with cRNA
T1 sequence (P78348 1-528): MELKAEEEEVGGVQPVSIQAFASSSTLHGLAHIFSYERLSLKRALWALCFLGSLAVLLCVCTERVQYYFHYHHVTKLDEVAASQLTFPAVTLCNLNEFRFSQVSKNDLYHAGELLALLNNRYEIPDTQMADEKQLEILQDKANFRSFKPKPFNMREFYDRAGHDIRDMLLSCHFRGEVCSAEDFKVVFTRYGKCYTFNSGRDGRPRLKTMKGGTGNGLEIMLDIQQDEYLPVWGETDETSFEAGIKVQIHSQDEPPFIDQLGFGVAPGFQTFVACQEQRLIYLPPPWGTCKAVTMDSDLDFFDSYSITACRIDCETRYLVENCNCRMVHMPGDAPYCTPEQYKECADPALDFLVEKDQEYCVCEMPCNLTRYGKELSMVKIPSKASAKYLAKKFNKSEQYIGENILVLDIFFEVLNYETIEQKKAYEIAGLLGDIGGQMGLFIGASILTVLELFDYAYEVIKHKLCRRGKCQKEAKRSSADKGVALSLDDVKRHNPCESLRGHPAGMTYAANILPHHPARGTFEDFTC
Assay: Isust/Ipeak, TEVC in Xenopus oocytes, WT
Assay type: cell-based
Details: FRRFa in pH7.4 conditioning and pH5 solution, mean ± SEM, n = 7–12, read-out: EC50 for induction of sustained current (Isust/Ipeak)
Method: ASIC1a function was measured by two-electrode voltage-clamp after recombinant expression in Xenopus oocytes. The channels were activated by a pH5 stimulation solution from a conditioning solution of pH7.4. […] We measured the rate of FRRFa unbinding, as the disappearance of the sustained current after a 50-s incubation with 50 μM FRRFa, as 0.025 ± 0.005 s^−1 (n = 8, Fig. 2b). […] To determine the kinetics of FRRFa association on ASIC1a, we pre-applied the peptide at a concentration of 50 μM for different time periods in the conditioning solution and measured the sustained current fraction.
Human ASIC1a[43] had been subcloned into a vector for transcription that contained 5′- and 3′-untranslated regions of Xenopus β-globin mRNA[44]. Point mutations were introduced using QuikChange (Agilent, Basel, Switzerland). Mutations were verified by sequencing (Synergene Biotech, Zurich, Switzerland). Expression in Xenopus laevis oocytes was carried out as described previously. […]
Electrophysiological measurements were performed 1–2 days after cRNA injection. Ion currents were recorded using two-electrode voltage-clamp at a holding potential of −60 mV with a Dagan TEV-200 amplifier (Minneapolis, MN). […] The amplitude of the sustained current was measured in the last two seconds of the pH5 perfusion. […]

## N=C(N)NCCC[C@H](NC(=O)[C@H](CCCNC(=N)N)NC(=O)[C@@H](N)Cc1ccccc1)C(=O)N[C@@H](Cc1ccccc1)C(N)=O [FRRFa, Phe-Arg-Arg-Phe-amide] (H-FRRF-NH2)
  EC50: 37 ± 15 µM
